The record followed here is article PMC10949195, “Exponential Combination of a and e/g Intracellular Peptide Libraries Identifies a Selective ATF3 Inhibitor” (ACS Chemical Biology, 2024).

One test concerns the target T1, ATF3 (Homo sapiens, UniProt P18847).
T1 construct: We focus on the selective targeting of the ATF3 leucine zipper dimerization domain using intracellular peptide library screening; made in house; host or cells: chemical solid-phase peptide synthesis (no expression host)
T1 sequence (P18847 110-143): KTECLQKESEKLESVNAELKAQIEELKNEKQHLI
The test can be described thus: CD thermal denaturation of peptide mixed 1:1 with ATF3. The conditions noted are these: peptide incubated with ATF3; CD signal at 222 nm, 1 °C increments; 150 μM total peptide; 10 mM potassium phosphate, 100 mM potassium fluoride, pH 7.0; two-state denaturation model. Format: binding. An excerpt:
Following the observed significant increase in global secondary structure content for the ATF3-ATF3W_aeg complex relative to component peptides (Figure 6), we next analyzed the stability of the complex by undertaking thermal denaturation experiments (Figure 7). […] Moreover, consistent with spectral data, the clear increase from the average profile of the component peptides relative to that of the measured is most pronounced in the combined construct (Figure 7, red hash vs black). This provides robust additional evidence for a preferential interaction between ATF3 and ATF3W_aeg that is improved over either the core a or electrostatic e/g constructs.
Shown are thermal stabilities of peptide pairs measured via temperature dependence of the CD signal at 222 nm. The thermal denaturation profiles for (a) ATF3-ATF3W_a, (b) ATF3-ATF3W_eg, and (c) ATF3-ATF3W_aeg show a substantial increase in the transition midpoint (Tm = 59 °C) relative to component peptides (black vs red hash). Experiments were performed in 10 mM potassium phosphate and 100 mM potassium fluoride (pH 7.0). All spectra were recorded at 1 °C increments at a total peptide concentration of 150 μM and fitted to a two-state denaturation model.
Thermal denaturation experiments were performed at 150 μM total protein concentration in 10 mM potassium phosphate and 100 mM potassium fluoride, pH 7, using an Applied Photophysics Chirascan CD instrument (Leatherhead, UK) as previously described.[23]

Test [1] relates to M2 macrophages differentiated from the human THP-1 monocytic cell line. The experiment in a line: THP-1 polarization assay and CCL-4 ELISA. Format: cell-based. The conditions noted are these: M2 macrophages from THP-1 (IL-4 polarized); 20 μM peptide with NLS-TAT appendage; 48 h; versus untreated. An excerpt:
ATF3 is a transcriptional repressor that regulates both the extent and duration of pro-inflammatory gene expression.[17] Specifically, ATF3 has been implicated in the transcriptional repression of chemokines including chemokine (C–C motif) ligand 4 (CCL4),[18] also known as macrophage inflammatory protein (MIP-1β), which promotes recruitment of additional immune cells to inflamed tissues. In the context of cancer, ATF3 activity counters antitumor immunity and promotes tumor growth. We therefore explored the effect of the ATF3W-aeg antagonist peptide on CCL4 expression in M2 anti-inflammatory macrophages differentiated from the human THP-1 monocytic cell line. […]
Figure 10 ATF3W-aeg peptide stimulates expression of pro-inflammatory cytokine in M2 macrophages. CCL4 protein levels were measured by ELISA from supernatants of M2 macrophage cultures treated with either 20 μM ATF3W-aeg or negative control peptide (****p < 0.0001). […]
THP-1 cells were seeded in 12-well format at a concentration of 5 × 10^5 cells/well and treated with 7.5 ng/mL Phorbol 12-Myristate 13-Acetate (PMA, Sigma-Aldrich) in RPMI media supplemented with 10% FBS and 55 μM β-mercaptoethanol (BME). […] After 48 h, supernatants were collected and clarified by centrifugation, and the CCL-4 concentration was assessed by ELISA (MIP-1b Human Instant ELISA Kit, ThermoFisher Scientific) according to the manufacturer’s protocol.
For orientation: ELISA stands for enzyme-linked immunosorbent assay.

In a further test the target is T2, ATF3W_aeg (synthetic construct).
T2 chain: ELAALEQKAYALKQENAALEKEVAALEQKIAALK
The experiment in a line: ITC. For orientation: ITC needs no label: the signal is the heat of the interaction.

Take “QLAALQQQAYALQQQNAALQKQVAALQQQIAALQ [ATF3W_a]”: the “transition midpoint (Tm) of heterodimer with ATF3” value on ATF3 turned out to be 26 °C. “EAAALEQKIYALKQEAAALEKEIAALEQKAAALK [ATF3W_eg]”: on ATF3, the “transition midpoint (Tm) of heterodimer with ATF3” value was 52 °C. For “Ac-KAAALKQKAYALKQQIAALKKQVAALKQKIAALKPKKKRKVYGRKKRRQRRR-NH2 [Fra1W-NLS TAT, reference compound]”, the “effect on CCL4 expression (protein in supernatant, ELISA)” value in test [1] was “no effect”.

B1: ATF3 leucine zipper (peptide)
chain: TECLQKESEKLESVNAELKAQIEELKNEKQHLIYM
B1 had a Kd in the test with ATF3W_aeg of 0.151 µM.

A word on the Kd: it is a measure of binding affinity in units of concentration. High values mean a looser complex, low ones a tighter complex.
